One assay addresses T1, Aβ fibrils (Homo sapiens, UniProt P05067).
T1 construct: the Aβ fibrils are grown from synthetic Aβ (1-42) peptides by incubating the peptides (74 μM) in ultrapure water
The conditions noted are these: cited from earlier work; for Binding and coating of Aβ fibrils (inhibition of IgG-Aβ fibril interactions): ELISA with monoclonal anti-Aβ IgG clone 6E10, Inbar et al.

In assay [1] the target is T2, Aβ peptide (1-42) ion channels (Homo sapiens, UniProt P05067).
T2 construct: purchased Innovagen, Lund, SE or Bachem Bioscience Inc., King of Prussia, Pa., USA
As to the kind of experiment: Electrophysiological planar lipid bilayer assay for Aβ peptide ion channel activity (bilayer chambers, voltage clamp). The format is biochemical. The conditions noted are these: for Inhibition of Aβ pores / ion channel activity of Aβ: electrophysiological screening assay of FIGS. 3-5; for Inhibition of Aβ peptide ion channel formation (pore forming activity): 37 μM Aβ peptide, test compound in molar ratio 1:1, added at the same time as Aβ peptide, planar lipid bilayer; for Disruption of preformed Aβ ion channels: added after current activity was observed. The text has this: Ion channel measurements. Screening assays can be performed using single channel recordings in “voltage clamp mode” using Ag/AgCl electrodes (Warner Instruments) in each compartment of the bilayer chambers. Data acquisition and storage can be carried out using custom software in combination with either an EPC-7 patch clamp amplifier from List Medical Electronic (set at a gain of 10 mV pA-1 and a filter cutoff frequency of 3 kHz) or a Geneclamp 500 amplifier from Axon Instruments (with a CV-5B 100GU headstage, set at a gain of 100 mV pA-1 and filter cutoff frequency of 1 kHz). In some embodiments, patch clamp amplifiers, for example, the EPC-7 amplifier can be used for most folded bilayers and the Geneclamp 500 amplifier for most painted bilayers. The data acquisition boards for both amplifiers were set to a sampling frequency of 15 kHz. Current traces can be further filtered using a digital Gaussian low-pass filter with a cutoff frequency of 30 Hz. In some embodiments, the current traces used to generate data that can be recorded at applied potentials 50 mV and filtered at 10 Hz.
Analysis of the single channel current traces can be made by computing histograms of the currents from the original current-time traces with ClampFit 9.2 software from Axon Instruments. From these histograms, the main current values can be extracted by fitting a Gaussian function to the peaks in the histograms. Single channel conductances can refer to the main conductance state (i.e. to the dominant peaks in the current histograms).
The lipid mixture can be made from POPE:POPG (Avanti Polar Lipids) at 25 mg/ml (1:1) in Heptane. The pretreatment lipid solution can be POPE:POPG 20 mg/mL in Hexane. 2. The bilayer is formed in classic bilayer cups and chamber (Warner Instruments). This 2-part system consists of a black Delrin chamber and a cup of Delrin. Cups and chambers are designed such that addition of equal volumes to the cup and chamber (cis and trans sides) results in a balanced solution height, minimizing any pressure gradients across the bilayer membrane.
The bilayer was formed over a 250-μm hole in a partition separating two Delrin compartments, the so called “painting technique.” First, droplets of pretreated lipid solution were placed on both sides of the hole, using 100 μL-Hamilton syringe. Once the droplet of hexane evaporates, both chambers (cis and trans) were symmetrically filled with 900 μL of buffer solution, 100 mM KH2PO4/K2HPO4 pH 7.4, at room temperature.
When the bilayer set-up was already in place with Ag/AgCl electrodes in Faraday cage (a bilayer workstation which provides critical shielding of electromagnetic interference from outside sources and isolate vibration) the lipid solution (POPE:POPG in Heptane) can be painted directly over the hole by using a thin paintbrush. Blowing air underneath the hole using a Pasteur pipette to thin out the bilayer can be used until the appropriate capacitance (80-120 pF) is achieved. A voltage of ±100 mV was applied for at least 10 minutes to test stability of lipid bilayer.
Aβ(1-42) (commercially available from Innovagen, Lund, SE or Bachem Bioscience Inc., King of Prussia, Pa., USA) is initially dissolved in deionized water at 1 mg/ml (221.5 μM) and stored at −20° C. The stock solution can be aliquotted to sufficient amount for each time use (90 μL). After the stable bilayer is constituted, the Aβ(1-42) solution can be added to the trans side of the chamber to obtain a final concentration of 37 μM. The solution is mixed well in the chamber under stirring for 5 minutes.
Congo Red (Sigma) is dissolved in de-ionized (DI) water to achieve a concentration of 2.5 mg/ml (3.58 mM as a stock solution). (−)Nicotine hemisulfate (Sigma, St. Louis, Mo., USA) was diluted to 1.89 mM in DI water. Tannic acid (Riedel-de Haën, Seelze, Germany) is diluted to 20 mM in DI water.

“Also recorded” adds a separate entry of the source.

T2 sequence (P05067 672-713 limits assumed): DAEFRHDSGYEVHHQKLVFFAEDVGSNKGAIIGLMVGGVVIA
T1 sequence (P05067 672-713 limits assumed): as above

Take `O=S(=O)([O-])c1ccc(O)c2ccccc12.[Na+]` [1-naphthol-4-sulfonate]: the “Binding and coating of Aβ fibrils (inhibition of IgG-Aβ fibril interactions)” value on Aβ fibrils was “do not interact with Aβ fibrils”.

`Nc1c(/N=N/c2ccc(-c3ccc(/N=N/c4cc(S(=O)(=O)O)c5ccccc5c4N)cc3)cc2)cc(S(=O)(=O)O)c2ccccc12` [Congo Red]: the “Binding to aggregated Aβ fibrils” value on Aβ fibrils is “bind strongly”. In assay [1], the “Inhibition of Aβ pores / ion channel activity of Aβ” value was “inhibit Aβ pores”.

Take `O=C(OC[C@H]1O[C@@H](OC(=O)c2cc(O)c(O)c(OC(=O)c3cc(O)c(O)c(O)c3)c2)[C@H](OC(=O)c2cc(O)c(O)c(OC(=O)c3cc(O)c(O)c(O)c3)c2)[C@@H](OC(=O)c2cc(O)c(O)c(OC(=O)c3cc(O)c(O)c(O)c3)c2)[C@@H]1OC(=O)c1cc(O)c(O)c(OC(=O)c2cc(O)c(O)c(O)c2)c1)c1cc(O)c(O)c(OC(=O)c2cc(O)c(O)c(O)c2)c1` [Tannic acid]: on Aβ fibrils, the “Binding to aggregated Aβ fibrils” value is recorded as “bind strongly”. In addition, in assay [1], the “Inhibition of Aβ peptide ion channel formation (pore forming activity)” value is on record as “Inhibition of Aβ ion channel formation” and the “Inhibition of Aβ pores / ion channel activity of Aβ” value is listed as “inhibit ion channel activity of Aβ”. The “Inhibition of Aβ pores / ion channel activity of Aβ” value in assay [1] (listed as tannic acid) is given as “inhibit Aβ pores”.

Turning to `Cc1ccc2c(c1)sc(-c1ccc(N(C)C)cc1)[n+]2C.[Cl-]` [ThT, Thioflavin T], at Aβ fibrils, the “Binding and coating of Aβ fibrils (inhibition of IgG-Aβ fibril interactions)” value is “bind and coat Aβ fibrils”.

Turning to `NCCc1ccc(O)c(O)c1` [dopamine], in assay [1], the “Inhibition of Aβ pores / ion channel activity of Aβ” value is “inhibit Aβ pores”.

Turning to `CN1CCC[C@H]1c1cccnc1` [nicotine, (−)Nicotine hemisulfate], the “Inhibition of Aβ peptide ion channel formation (pore forming activity)” value in assay [1] was “eliminated ion channel pore forming activity”. Moreover, the “Amount of nicotine needed: disruption of preformed channels versus inhibition of de novo formed channels” value in assay [1] (comparison of preformed and de novo formed Aβ ion channels) is “required more nicotine than the inhibition de novo formed ion channels”. In addition, in assay [1], the “Inhibition of Aβ pores / ion channel activity of Aβ” value is on record as “inhibit Aβ pores”. Also, the “Concentration dependence of disruption of Aβ peptide ion channel activity” value in assay [1] (nicotine added after observing Aβ current activity, 1:1, 1:2, 1:3 and 1:4 molar ratio) is on record as “concentration-dependent disruption of Aβ peptide ion channel activity”. For the same compound, the “Disruption of preformed Aβ ion channels” value in assay [1] (nicotine at 2-fold molar excess with respect to Aβ peptide (1-42)) is reported as “disrupted preformed ion channels”; in assay [1] (nicotine at 4-fold molar excess (4:1) with respect to Aβ peptide (1-42)), “disrupted preformed ion channels almost completely; also recorded: disrupted preformed Aβ peptide ion channel activity almost completely”. Further, the “Time to almost complete disruption of preformed ion channels” value in assay [1] (nicotine at 4-fold molar excess with respect to Aβ peptide (1-42)) was ≤ 10 min.

Consider Diaminoacridine [DAA], for which the “Binding and coating of Aβ fibrils (inhibition of IgG-Aβ fibril interactions)” value at Aβ fibrils was “bind and coat Aβ fibrils”.

The values are drawn from patent US20100178658A1, “SCREENING ASSAYS FOR INHIBITORS OF BETA AMYLOID PEPTIDE ION CHANNEL FORMATION” (The Regents of the University of Michigan, priority 2007, published 2010).
